# From US5260340A, “Prevention and amelioration of acetaminophen toxicity with beta-carotene” (priority 1992, dated 1993)
# Read-outs that look alike come from different tables or passages of the source.
# Assays:
# mice = assay: Feeding of mice following IP injection of a lethal dose of acetaminophen; type: in vivo
# liver = details: cited from earlier work
# [1] = cited from earlier work
# [2] = cited from earlier work; remark: listed apart in the source
# acetaminophen toxicity [3] = assay: Prevention of acetaminophen toxicity, pre-administration of beta-carotene in the diet: survival after IP acetaminophen 800 mg/kg; type: in vivo, 129/ReJ mice; details: for mice alive seventy-two hours after injection: 800 mg/kg acetaminophen IP; for Survival 72 Hours After Ingestion (%) / Survival 72 Hours After Ingestion, Survivors/Sample: acetaminophen 800 mg/kg IP
# Description: (§1) The total amount of beta-carotene consumed by mice in each experiment was computed using the estimates that a 25 gram mouse will consume […] of food and 25 ml/day of water, under normal conditions.
# Nine 129/ReJ mice, (The Jackson Laboratory-Bar Harbor, Me.) were pre-fed a diet of Modified HLR 341 with 10 percent of 10% beta-carotene beadlets, 1.6 mg/kg of vitamin K, and 4,000 IU/kg of vitamin A (Dyets, Inc.--Bethlehem, Pa.) for a period of five months. Each mouse ingested about 7.5 grams of beta-carotene.
# Each mouse then received an intraperitoneal (IP) injection of 800 mg/kg of acetaminophen (Fisher Scientific-Pittsburgh, Pa.) dissolved in 20% Tween 80 (Sigma Chemical Company -- St. Louis, Mo.) in saline. […]
# acetaminophen toxicity [4] = assay: Prevention of acetaminophen toxicity, simultaneous administration (Example 5): survival; type: in vivo, DBA/2J mice; details: about 20 mg total beta-carotene per mouse by hour 24; 1% acetaminophen in water, 500 mg/kg IP at hours 24 and 30
# Description: as §1
# Four DBA/2J mice (The Jackson Laboratory) were weighed. Food was removed, and the mice were given drinking bottles containing a one percent aqueous solution of acetaminophen (Fisher Scientific) and 60 mg of beta-carotene per 100 ml ("Twinlab"--Twin Laboratories--Ronkonkoma, N.Y.). After twenty-two hours, the mice were given a Modified HLR 341 diet having 10 percent of 10% beta-carotene beadlets, 10% safflower oil food pellets, 6% lard, 1.6 mg/kg of vitamin K, and 4000 IU/kg of vitamin A (Dyets, Inc.). Each mouse ingested about 20 mg total beta-carotene from the water and food by the twenty-fourth hour.
# At the twenty-fourth and thirtieth hours, all of the mice received an IP injection of 500 mg/kg of acetaminophen dissolved in 20% Tween 80 (Sigma Chemical Co.) in saline. At the forty-eighth hour, all of the mice were weighed, and the drinking bottles were filled with pure water.
# acetaminophen toxicity [5] = assay: Prevention of acetaminophen toxicity, simultaneous administration (Example 6): survival and body weight; type: in vivo, 129ReJ mice; details: beta-carotene diet
# Description: as §1
# Ten 129ReJ mice (The Jackson Laboratory) were starved for twelve hours during which time they lost 4% of their original weight. The mice were then given drinking bottles containing a 0.1% aqueous solution of acetaminophen (Fisher Scientific). The mice were given a Modified HLR 341 diet with 10 percent of 10% beta-carotene beadlets, 10% safflower oil, 6% lard, 1.6 mg/kg of vitamin K, and 4000 IU/kg of vitamin A (Dyets, Inc.). The food regimen was continued throughout the remainder of the experiment.
# At the sixtieth hour, all of the mice received an IP injection of 300 mg/kg of acetaminophen, and the drinking bottles were filled with pure water.
# acetaminophen toxicity [6] = assay: Antidotal treatment of acetaminophen toxicity (Example 7): survival and weight restoration; type: in vivo, 129/ReJ mice
# Description: as §1
# (§2) The design of this experiment was predicated on the clinical time sequence involved in, or associated with, acetaminophen overdose and toxicity, and the biological response of mice to lethal injections of this drug. When a human ingests a toxic, potentially lethal dose of acetaminophen, few if any, clinical signs manifest during the first forty-eight hours. The patient remains alert and can take food voluntarily or by a nasal gastric tube. […] Because the time course of human toxicity implies that a patient could orally ingest an antidote such as beta-carotene within the forty-eight hour period immediately following an overdose, it was proposed that a comparative animal model would be feeding subjects with a beta-carotene diet for forty-eight hours prior to the administration of a known lethal dose of acetaminophen.
# Eight 129/ReJ mice (The Jackson Laboratory) were wholly or partially starved for seventy-two hours to enhance their appetite. Mean weight loss during this period was 13%. […] Each mouse ingested about 0.1 gram of beta-carotene by the forty-eighth hour. […]
# acetaminophen toxicity [7] = assay: Antidotal treatment of acetaminophen toxicity (Example 8): survival and weight regain; type: in vivo, DBA/2J mice
# Description: as §1, §2
# Twelve DBA/2J mice (The Jackson Laboratory) were weighed and starved for seventy-two hours. The mean weight loss during this time was 27%. The mice received a Modified HLR 341 diet with 10 percent of 10% beta-carotene beadlets, 10% safflower oil, 6% lard, 1.6 mg/kg of vitamin K, and […] of vitamin A (Dyets, Inc.). The mice regained 86% of their original weight. Each mouse ingested about 0.1 gram of beta-carotene by the forty-eighth hour.
# After forty-eight hours on the experimental diet, the mice received an IP injection of 800 mg/kg of acetaminophen (Fisher Scientific) dissolved in 20% Tween 80 (Sigma Chemical Co.) in saline.
# The mice were reweighed, and a second injection of 600 mg/kg of acetaminophen dissolved in 20% Tween 80 in saline was given to each mouse. By seventy hours after the first injection, 92% of the mice were alive.
# [8] = test system: aflatoxin-induced liver toxicity; details: chickens; simultaneous administration; cited from earlier work
# [9] = test system: toxic side effects of antibiotics; details: plants; cited from earlier work
# toxicity due to aspirin = details: in vivo; cited from earlier work
# cytochrome P450 = details: fourteen days of dietary beta-carotene supplement; mouse liver homogenates; cited from earlier work
# [10] = test system: Kupffer cells of the liver; details: in vivo; cited from earlier work
# [11] = human; not yet determined; cited from earlier work
# [12] = mammals; cited from earlier work
# [13] = test system: duodenal ulcers and stress ulcers; details: rats fed 3-, 4-diaminotoluene; cited from earlier work
# [14] = acetaminophen in water, 600 mg/kg IP after hour 48 and 300 mg/kg IP at hour 60
# [15] = forty-eight hours on beta-carotene diet after starvation, before acetaminophen
molecule,measurement,setting,value
CC(=O)Nc1ccc(O)cc1 [acetaminophen],feeding following IP injection of a lethal dose,mice,cease to feed
same,time of hepatic failure after ingestion,liver; acute acetaminophen toxicity,three to five
same,ingestion at which mortality is significantly higher,liver; acute ingestion,exceeds 25 grams
same,toxic dosage,liver; adult,greater than 10 grams
same,toxic dosage,liver; child,≥ 140 milligrams per kilogram
same,dosage that has resulted in chronic liver disease,"liver; long term dosages, as low as",three
same,half-life,"[1]; normal dosages, normal patient",about 21/2
same,half-life,[1]; severe hepatocellular injury,over 4 hours
same,solubility in water,[2],soluble in water
CC1=C(/C=C/C(C)=C/C=C/C(C)=C/C=C/C=C(C)/C=C/C=C(C)/C=C/C2=C(C)CCCC2(C)C)C(C)(C)CCC1 [beta-carotene],survival rate compared with Comparative Examples 1A*-4A*,acetaminophen toxicity [3]; administration before challenge with toxic amounts of acetaminophen,increases the survival rate significantly
same,mice alive seventy-two hours after injection,"acetaminophen toxicity [3]; nine mice, pre-fed five months (about 7.5 grams beta-carotene)",all mice were alive
same,mice alive seventy-two hours after injection,"acetaminophen toxicity [3]; nineteen mice, pre-fed seven days (about 0.35 grams beta-carotene)",five of the mice were alive
same,Survival 72 Hours After Ingestion (%),acetaminophen toxicity [3]; pre-feeding 5 Months,100%
same,"Survival 72 Hours After Ingestion, Survivors/Sample",acetaminophen toxicity [3]; pre-feeding 5 Months,9/9
same,Survival 72 Hours After Ingestion (%),acetaminophen toxicity [3]; pre-feeding 5 Weeks,65%
same,"Survival 72 Hours After Ingestion, Survivors/Sample",acetaminophen toxicity [3]; pre-feeding 5 Weeks,13/20
same,Survival 72 Hours After Ingestion (%),acetaminophen toxicity [3]; pre-feeding 7 Days,26%
same,"Survival 72 Hours After Ingestion, Survivors/Sample",acetaminophen toxicity [3]; pre-feeding 7 Days,5/19
same,Survival 72 Hours After Ingestion (%),acetaminophen toxicity [3]; pre-feeding 23 Days,100%
same,"Survival 72 Hours After Ingestion, Survivors/Sample",acetaminophen toxicity [3]; pre-feeding 23 Days,20/20
same,mice alive seventy-two hours after injection,"acetaminophen toxicity [3]; twenty mice, pre-fed five weeks (about 1.75 grams beta-carotene)",thirteen of the mice were alive
same,mice alive seventy-two hours after injection,"acetaminophen toxicity [3]; twenty mice, pre-fed twenty-three days (about 1.15 grams beta-carotene)",twenty of the mice were alive
same,mice alive by the seventy-second hour,acetaminophen toxicity [4],75%
same,body weight after twenty-four hours,acetaminophen toxicity [5]; 0.1% aqueous acetaminophen,regained or increased their original weight
same,body weight after the forty-eighth hour,acetaminophen toxicity [5]; 0.5% aqueous acetaminophen,maintenance of the mice's original weight
same,animals alive at the seventy-second hour,acetaminophen toxicity [5]; [14],all of the animals were alive
same,mice alive at the one hundred fiftieth hour,acetaminophen toxicity [5]; [14],90%
same,"body weight, of original weights, at the one hundred fiftieth hour","acetaminophen toxicity [5]; acetaminophen in water, 600 and 300 mg/kg IP",93%
same,mice alive seventy-two hours after injection,"acetaminophen toxicity [6]; beta-carotene diet for forty-eight hours (about 0.1 gram per mouse), 800 mg/kg acetaminophen IP",63%
same,restoration of original weight,acetaminophen toxicity [6]; [15],98%
same,mice alive by seventy hours after the first injection,"acetaminophen toxicity [7]; about 0.1 gram beta-carotene, acetaminophen 800 mg/kg IP then 600 mg/kg",92%
same,regain of original weight,acetaminophen toxicity [7]; [15],86%
same,mice that had died by thirty-six hours after the injection,"acetaminophen toxicity [7]; twelve mice, about 0.1 gram beta-carotene, 800 mg/kg acetaminophen IP",one mouse had died
same,aflatoxin-induced liver toxicity,[8],reduction of aflatoxin-induced liver toxicity
same,toxic side effects of antibiotics,[9],prevent the toxic side effects of antibiotics
same,adverse side effects and toxicity due to aspirin,toxicity due to aspirin,reduced adverse side effects and toxicity due to aspirin
same,cytochrome P450,cytochrome P450,reduced cytochrome P450
same,deposition in liver cells,[10],"deposited in, and remains sequestered in, only the Kupffer cells of the liver"
same,safe upper limit (believed),[11],"at least 1,000 mg/day"
same,oxidative cleavage at the central double bond,[12],readily undergoes oxidative cleavage at the central double bond
vitamin A,adverse side effects and toxicity due to aspirin,toxicity due to aspirin,reduced adverse side effects and toxicity due to aspirin
same,duodenal ulcers and stress ulcers,[13],could prevent duodenal ulcers and stress ulcers
